We go through one compound from article PMC12381739, “Druglike Molecular Degraders of the Oncogenic RNA-Binding Protein HuR” (JACS Au, 2025).

The structures appear in SMILES notation.

For assay [1], the system named is MCF-7 and MDA-MB-231 cells. Briefly: Cell counting-proliferation assay. In kind it is cell-based, human. Conditions: compared to Binders 1 and 2, at 24 and 48 h.
Procedure: MCF-7 and MDA-MB-231 cells were seeded in 96-well plates to 80% confluency and treated with synthesized compounds at eight concentrations (0.1 nM–100 μM) for 24 and 48 h. Cell proliferation was assessed using the Resazurin Assay Kit (Abcam, ab228554), where each sample was incubated with 1× WST-8/CCK8 solution for 1 h. After incubation, fluorescence was measured by absorbance at 460 nm using the Synergy H1 Hybrid Multi-Mode Microplate Reader (Biotek, Agilent). Cell proliferation was calculated as the percent decrease in fluorescence of treated cells compared to untreated controls. All experiments were performed in triplicate.
For another assay, the target named is T1, HuR RRM1/2 (Homo sapiens, UniProt Q15717).
T1 construct: 20 nM of the 5′-FAM RNA probe and 500 nM of HuR RRM1/2
Briefly: Fluorescence polarization (FP) displacement assay, 5′ FAM-labeled RNA probe from HuR. As to conditions: displacement of 5′-FAM RNA probe UAUUUAUUUA (20 nM) from 500 nM HuR RRM1/2; read-out: Binding affinity towards HuR in FP assay (Kd). As to the method: Following the synthesis, our initial aim was to ensure that the new derivatives retained their affinity for HuR’s RNA-binding pocket. Thus, a binding evaluation assay was conducted. As previously reported, the RNA-binding pocket of HuR specifically recognizes the UTR sequences of mRNAs, with […] identified as a common binding motif. To evaluate the binding of each degrader, we conducted a fluorescence-based assay utilizing a 5-carboxyfluorescein (5′ FAM)-labeled reporter. This fluorescence polarization (FP) assay is based on the displacement of the 5′ FAM-labeled mRNA from HuR’s RNA-binding pocket, which provides insight into both the binding affinity of the degrader and its capacity to disrupt the HuR-mRNA interaction, thereby serving as a means of validating target engagement. When the 5′ FAM-RNA probe is bound to HuR, it forms a binary complex, resulting in slower rotational movement and a consequently high FP signal. However, when either molecule displaces the 5′ FAM-labeled RNA, the probe is released into the solution, where it undergoes rapid rotation, leading to a significant reduction in the FP signal (Figure S3). This decrease in FP serves as a quantitative measure of the degrader’s ability to compete with mRNA for HuR binding. […] As mentioned above, we synthesized a series of HuR ligand derivatives featuring indole and benzothiophene cores, along with ester and carboxylic acid functional groups.
As previously reported, the sequence of the fluorescently labeled (5′-FAM) RNA probe is […]. The assays were performed in PBS buffer (20 mM sodium phosphate, 150 mM NaCl, 1 mM dithiothreitol, 0.05% PLURONIC-127, 15% DMSO) at 293 K. Fluorescence was measured using the Synergy H1 Hybrid Multi-Mode Microplate Reader (Biotek, Agilent) with excitation and emission wavelengths set to 485 and 528 nm, respectively. Each well of a 384-well plate contained 20 nM of the 5′-FAM RNA probe and 500 nM of HuR RRM1/2. Compounds were tested at eight concentrations (0.1 nM–100 μM), with compound 10 serving as a positive control and PBS as the negative control. The protein-mRNA mixture was incubated for 1.5 h to allow for binding interactions. After this incubation, the compounds were added, and the mixture was incubated for an additional hour. The FP emission of the resulting HuR-compound complex was then recorded. The percent inhibition of binding was calculated by comparing the FP values of experimental conditions to the PBS control. The FP value corresponding to the HuR-RNA complex in the presence of DMSO was used as the 100% complexation reference, while the FP value of the labeled RNA alone was set as 0% complexation. The dissociation constant (K d) for the compound-HuR binding interaction was determined by fitting the dose–response curve to specific binding models using Prism 10.2.2. All experiments were performed in triplicate.
(Polarisation of emitted light reports the rotation of a fluorescent probe.)

The target in the next assay is HuR (Homo sapiens, UniProt Q15717). Description: Fluorescence binding assay using intrinsic fluorescence of the PROTAC with titrated HuR protein. Conditions: fixed 100 μM degrader, increasing HuR; fluorescence rises over 0.0075–0.1 nM and 0.125–1 nM. As to the method:
To elucidate the mechanism underlying the observed biphasic degradation pattern, we generated a docking model using the Schrödinger software. […] This preferential binding correlates with the initial phase of degradation observed at low degrader concentrations (5 nM to 100 nM; Figures B and B and ). At higher degrader concentrations (e.g., 10 μM), different complex engagement may occur at the P2 RNA-binding pocket. […] Unlike the previous displacement assay–which monitored competition between labeled RNA and HuR–we utilized the intrinsic fluorescence of the PROTAC derivative at a fixed concentration while titrating HuR protein. This approach allowed us to detect fluorescence changes corresponding to HuR binding events. […] Fluorescence increased over two separate concentration ranges–0.0075–0.1 nM and 0.125–1 nM–with a clear dip between 0.1 and 0.125 nM. […]
As part of the dual-binding evaluation, Pro-HuR3 fluorescence was first characterized across a concentration range (1–100 μM; 1, 2, 5, 10, 20, 50, and 100 μM). The assays were performed in PBS buffer (20 mM sodium phosphate, 150 mM NaCl, 1 mM dithiothreitol, 0.05% PLURONIC-127, 15% DMSO) at 293 K. Fluorescence spectra were recorded using the Synergy H1 Hybrid Multi-Mode Microplate Reader (Biotek, Agilent), with excitation and emission scans identifying optimal wavelengths of 405–415 nm (excitation) and 520 nm (emission), respectively. […]

Another assay relates to Bcl2 and FOXQ1 mRNA. Briefly: mRNA RT-qPCR of Bcl2 and FOXQ1 in MCF-7 cells. The class given is cell-based, human. As to the method:
MCF-7 cells were seeded into 12-well plates (∼150,000 cells per well) at 60–70% confluency incubated for 12 h. The cells were then treated with different synthesized compounds at the indicated concentrations or with vehicle control for 24 and 48 h. After treatment, total RNA was extracted using the QuickRNA Miniprep Kit (Zymo Research) according to the manufacturer’s protocol, including DNase I treatment. Reverse transcription was performed on 1 μg of total RNA using the qScript cDNA Synthesis Kit (Quantabio) following the manufacturer’s instructions. Approximately 30 ng of cDNA were used for each qPCR reaction, which was carried out using the Luna Universal qPCR Master Mix (New England BioLabs, cat# E3010G) on a CFX Opus 384 Real-Time PCR System. Relative expression levels of Bcl-2 and FOXQ1 were calculated by normalizing to GAPDH expression using the ΔΔCt method.
(In general: In qPCR the cycle at which signal appears reflects the starting amount.)

Chain of HuR (Q15717 whole entry): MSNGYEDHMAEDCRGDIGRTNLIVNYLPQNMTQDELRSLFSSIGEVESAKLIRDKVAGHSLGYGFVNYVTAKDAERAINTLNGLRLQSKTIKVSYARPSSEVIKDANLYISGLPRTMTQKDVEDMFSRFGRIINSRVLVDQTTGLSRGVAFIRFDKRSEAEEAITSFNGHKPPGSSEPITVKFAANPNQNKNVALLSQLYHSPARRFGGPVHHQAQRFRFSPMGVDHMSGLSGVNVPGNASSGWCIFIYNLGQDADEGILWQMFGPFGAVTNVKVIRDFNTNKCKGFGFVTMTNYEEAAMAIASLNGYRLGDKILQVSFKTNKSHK
T1 sequence (Q15717 18-186 limits assumed): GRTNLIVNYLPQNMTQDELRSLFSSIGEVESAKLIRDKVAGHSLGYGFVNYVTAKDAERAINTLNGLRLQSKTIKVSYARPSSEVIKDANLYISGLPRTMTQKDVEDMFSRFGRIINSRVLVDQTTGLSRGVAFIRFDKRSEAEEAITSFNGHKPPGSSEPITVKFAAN

As a reminder, the Kd is the equilibrium constant for the complex coming apart. As to `O=C1CCC(N2C(=O)c3cccc(NCc4cn(-c5ccc6sc(C(=O)O)cc6c5)nn4)c3C2=O)C(=O)N1` (centres unmarked) [PRO-HuR3], the cell proliferation result in assay [1] is “significant decrease in cell proliferation”. In addition, at HuR RRM1/2, the Kd amounted to 30 nM. Besides, the “binding response on HuR titration (intrinsic fluorescence)” value at HuR was “two distinct IC50 values”. The “Bcl2 mRNA expression relative to lower concentrations” value with Bcl2 and FOXQ1 mRNA (MCF-7, 1 μM) is “increase in Bcl2 expression”. For the same compound, the “Bcl2 and FOXQ1 mRNA expression” value in the assay with Bcl2 and FOXQ1 mRNA (MCF-7, concentrations ranging from 1 nM to 100 nM) is “decrease in the expression of both genes”.
